Tests used:
U-87MG cells [1] = assay: U-87MG-induced spheroid formation in liquid culture; format: cell-based, Human; conditions: treated again after 48 hours, further 72 hours
Method: U-87MG cells can be grown either as a monolayer or as multicellular three-dimensional spheroids (500-1,000 µm) in liquid culture. Since spheroids closely resemble the architecture of a tumor in vivo, the cultures were contacted with cRGD or RGD to determine if treatment had any effect on spheroid formation. U-87MG cells (5 ×10^5-1×10^6) were mixed with either cRGD (100µg) or RGD (100µg) peptide or PBS (as untreated control) and incubated at 4° C for 30 minutes. Treated and untreated cells were then seeded onto 24-well plate and incubated further at 37° C. Forty eight hours later; the treated cells were treated again with respective peptides and incubated for 72 hours.
In a second study, U-87MG cells were allowed to grow (in a 24-well plate) for 24 hours before the addition of cyclic (50 µg) or linear (50 µg) peptide. One set of cells, with PBS alone, served as untreated control. Forty eight hours later, the cells were treated again with respective cRGD (50 µg) or RGD (50 µg) peptides and incubated for an additional 72 hours.

U-251MG cells = assay: Effect of cRGD and RGD peptides on growth of human glioma cells (viable cell count by trypan blue dye exclusion; morphology under microscope); format: cell-based; conditions: 18 hours; for % inhibition: viable cells vs untreated control
Method: (§1) Human glioblastoma, U-87MG, and U-373MG cells were obtained from the American Type Culture Collection, Rockville, MD and grown in Dulbecco's modified Eagle's medium supplemented with 10% fetal calf serum (Hyclone Laboratories Inc. Logan, UT), sodium pyruvate (55 mg/L), sodium bicarbonate (1.2 g/L), HEPES (1.2 g/L) and gentamicin (50 µg/ml). U-251MG cells were provided by Dr. G.Y. Gillespie, University of Alabama at Birmingham, Alabama, and were grown in the above media.
(§2) Semi-confluent monolayers of U-87MG, U-251MG and U-373MG cells were treated with different concentrations of cRGD for 18 hours at 37° C incubator with 5% CO2. One set of cells served as untreated control. The cells were monitored under microscope for morphological changes. Most of the cRGD (10 µg/ml)-treated U-87MG (Figure 2; C=control) and U-373MG cells were rounded up. […] The number of viable cells (both treated and untreated) were then counted by trypan blue dye exclusion method using a hemacytometer (Hausser Scientific, Horsham, PA) and percent inhibition was calculated (Table 1).

U-87MG cells [2] = assay: as above; format: cell-based; conditions: 18 hours; for % inhibition: viable cells vs untreated control
Method: as §1, §2

U-373MG cells = assay: as above; format: cell-based; conditions: 18 hours; for % inhibition: viable cells vs untreated control
Method: as §1, §2

U-87MG cells [3] = assay: Effect of caspase-3 and caspase-9 inhibitors on cell death induced by cRGDfV (viable cell count, percent survival); format: cell-based, Human; conditions: U-87MG pretreated with DEVD-FMK (10 µM) or LEHD-FMK (10 µM) for 90 minutes; cRGDfV 20 µg/ml, 18 hours
Source text: To determine whether the observed killing of glioma cells was due to apoptosis, we used inhibitors of caspase-3 (DEVD-FMK) and caspase-9 (LEHD-FMK), two of the cysteine aspartyl proteases, known to be involved in apoptosis (see Salvesen GS, Dixit VM (1997) Cell 91:443-446; Cohen GM (1997) Biochem J326:1-16; Janicke RU, Sprengart ML, Wati MR, Porter AG (1998) J Biol Chem 273:9357-9360; Cardone MH, Roy N, Stennicke, HR, Salvesen GS, Franke TF, Stanbridge E, Frisch S, Reed JC (1998) Science 282:1318-1321; Sakahira H, Enari M, Nagata S (1998) Nature 391:96-99). Caspase-3 is required for morphological changes and cleavage of poly(ADP-ribose) polymerase (PARP), a cellular enzyme implicated in DNA repair mechanism. Caspase-9 is involved in cytochrome c-induced apoptosis by activating procaspase-3 which finally leads to apoptosis. Briefly, U-87MG and U-251MG cells were harvested from monolayer culture and were treated with DEVD-FMK (10 µM) or LEHD-FMK (10 µM) for 90 minutes at 37°C. One set of cells without any inhibitor served as control. Cells were then washed and incubated in the presence or absence of cRGDfV (20 µg/ml) at 37°C, 5% CO2 for 18 hours. The number of viable cells, both in control and treated groups were counted and percent survival was determined.

Row | Compound | effect on spheroid formation (U-87MG cells [1]; first study: 100µg peptide mixed with cells) | % inhibition (U-251MG cells; 10 ug/ml) [%] | % inhibition (U-251MG cells; 20 ug/ml) [%] | % inhibition (U-87MG cells [2]; 10 ug/ml) [%] | % inhibition (U-87MG cells [2]; 20 ug/ml) [%] | % inhibition (U-373MG cells; 10 ug/ml) [%] | % inhibition (U-373MG cells; 20 ug/ml) [%] | number of viable cells after cRGDfV treatment (U-87MG cells [3]) | reduction of the size of the spheroids (U-87MG cells [1]; first study: 100µg peptide mixed with cells, vs untreated control) | effect on spheroid formation (U-87MG cells [1]; second study: cells grown 24 hours, 50 µg peptide) | morphological changes (U-251MG cells; 10 µg/ml) | morphological changes (U-87MG cells [2]; 10 µg/ml) | morphological changes (U-373MG cells; 10 µg/ml)
1 | N=C(N)NCCC[C@H](N)C(=O)NCC(=O)N[C@@H](CC(=O)O)C(=O)O [RGD, H-Arg-Gly-Asp-OH, reference compound] | did not appear to effect spheroid formation | 0 | 13 | 0 | 3.5 | 6.7 | 0 | – | – | – | – | – | –
2 | cyclo(Arg-Gly-Asp-D-Phe-Val) [cRGD] | – | 0 | 5.9 | 52.9 | 70.6 | 46.7 | 80.0 | inability of cRGDfV to reduce the number of viable U-87MG cell | at least 70% | significant inhibitory effect on the spheroid formation | no significant morphological changes | rounded up | rounded up

From patent publication EP1002543A1, “Pharmaceutical compositions for the therapy of glioma or prostate cell proliferative disorders containing cyclic rgd compounds” (JCR PHARMACEUTICALS CO., LTD., priority 1998, dated 2000)
